Here are results for 26 compounds from patent US6235717A, “Pharmaceutical compounds” (Glaxo Wellcome Inc., priority 1993, dated 2001).

Starred links: 1 amine or outer side, 2 acyl side, 3 side chain; linkers in the order of their positions; H or OH if unused. Non-standard residues stand in square brackets, D forms with d. Residues, ends and D or L forms follow the SMILES beside them. ξ: configuration not given here. *: point of attachment. ξW = NC(Cc1c[nH]c2ccccc12)C(=O)O; Suc = O=C(CCC(=O)[*:2])[*:1]; MeOSuc = COC(=O)CCC(=O)*; Cbz = O=C(OCc1ccccc1)*; Pentanoyl = CCCCC(=O)*; Ahx = NCCCCCC(=O)O; OtBu = CC(C)(C)O*

Chain of endothelin converting enzyme (ECE) (F1SU04 entry or part of it): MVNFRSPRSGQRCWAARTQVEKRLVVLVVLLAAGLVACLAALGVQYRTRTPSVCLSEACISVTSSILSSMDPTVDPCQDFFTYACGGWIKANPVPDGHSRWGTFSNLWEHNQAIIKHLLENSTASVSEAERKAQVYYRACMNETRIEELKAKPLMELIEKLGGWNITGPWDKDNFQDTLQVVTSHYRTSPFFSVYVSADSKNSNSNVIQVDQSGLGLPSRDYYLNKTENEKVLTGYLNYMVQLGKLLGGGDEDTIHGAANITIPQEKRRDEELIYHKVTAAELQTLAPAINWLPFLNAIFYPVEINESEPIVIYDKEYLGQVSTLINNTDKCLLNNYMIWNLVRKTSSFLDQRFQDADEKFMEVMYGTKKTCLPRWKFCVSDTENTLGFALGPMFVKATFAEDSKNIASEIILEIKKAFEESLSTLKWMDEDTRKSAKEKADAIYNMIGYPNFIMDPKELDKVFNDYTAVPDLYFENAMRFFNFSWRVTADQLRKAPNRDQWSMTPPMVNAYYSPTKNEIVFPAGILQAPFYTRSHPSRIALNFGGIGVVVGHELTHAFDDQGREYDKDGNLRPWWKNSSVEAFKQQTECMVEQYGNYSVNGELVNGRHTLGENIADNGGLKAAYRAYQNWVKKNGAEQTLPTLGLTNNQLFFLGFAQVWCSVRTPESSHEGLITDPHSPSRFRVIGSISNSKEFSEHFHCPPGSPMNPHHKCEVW

The experiment concerns the target endothelin converting enzyme (ECE) (Sus scrofa, UniProt F1SU04). Nature of the experiment: "ECE" assay with porcine aortic "ECE" prep, fluorogenic substrate Suc-Ile-Ile-Trp-MCA. In kind it is biochemical. Particulars: porcine aortic endothelial cell ECE prep; 80 μM Suc-Ile-Ile-Trp-MCA; 15-20 min preincubation; overnight at 37° C.; pH 7.0; AMC fluorescence. The procedure:
IC50 values were determined as follows:
Porcine Aortic "ECE" Prep
Porcine aortas (22-25) were obtained fresh from a local slaughterhouse and delivered in cold PBS on ice. The aortas were cut open, rinsed with cold PBS and the endothelial cell layer scraped into cold PBS using a scalpel. The endothelial cells were pelleted by centrifugation, rinsed once with cold PBS, and repelleted. The pellet was lysed by addition of 10 volumes of 10 mM Tris-HCl, pH 7.0, containing protease inhibitors and DTS, followed by brief sonication and homogenization. The lysate was centrifuged at 100,000 g for 1 hour and the supernatant applied to a MONOQ FPLC anion exchange column equilibrated in 10 mM Tris-HCl, pH 7.0 (buffer A) which was then developed with an increasing gradient of NaCl in buffer A. The active fractions were aliquoted and stored at -70° C.
The ECE assay was performed in 96-well microplates in a total volume of 200μ/well. The assay cocktail contains 100 mM Tris-HCl, pH 7.0, 20 mM CaCl2, 80 μM substrate (Suc-Ile-Ile-Trp-MCA), enzyme and test compounds. The test compounds were preincubated with the enzyme for 15-20 minutes before initiation of the assay by addition of the substrate. The assay was incubated overnight at 37° C. and the fluorescence intensity caused by the release of AMC was determined using a fluorescence microplate reader (EX360 nm/EM460 nm). IC50 values for compounds were determined by constructing concentration-effect curves for the inhibition of enzyme activity. Concentrations on the linear portion of the inhibition curve were used to determine the IC50 utilizing a Hill plot.
Turning to `CC[C@H](C)[C@H](NC(C)=O)C(=O)N[C@H](C(=O)NC(C=O)Cc1c[nH]c2ccccc12)[C@@H](C)CC` (stereo partly drawn) [Example 60] (Ac-Ile-Ile-[ξW]-aldehyde), 1000 nM corresponded to half-maximal inhibition (IC50).

`CC[C@H](C)[C@H](NC(=O)CCC(=O)O)C(=O)N[C@H](C(=O)N[C@H](C=O)Cc1c[nH]c2ccccc12)[C@@H](C)CC` [Example 61] (Suc-Ile-Ile-Trp-aldehyde) returned an IC50 of 800 nM. The IC50 values of the last two compounds are within 1.5-fold of each other.

Consider `CC[C@H](C)[C@H](NC(=O)[C@H](CC(=O)OC(C)(C)C)NC(=O)OCc1ccccc1)C(=O)N[C@H](C(=O)N[C@H](C=O)Cc1c[nH]c2ccccc12)[C@@H](C)CC` [Example 64] (Cbz-D(OtBu)IIW-aldehyde), for which inhibition was half-maximal at 60 nM (IC50).

The compound `CC[C@H](C)[C@H](NC(=O)CCCCCNC(=O)CCCCC1SCC2NC(=O)NC21)C(=O)N[C@H](C(=O)NC(Cc1c[nH]c2ccccc12)C(OC)OC)[C@@H](C)CC` (stereo partly drawn) [Example 66, N-[[[5-(hexahydro-2-oxo-1H-thieno[3,4-d]imidazol-4-yl)valeramido]hexanoyl]-L-isoleucyl-L-isoleucine-L-N-[1-dimethoxymethyl]2-(1H-indol-3-yl)ethyl]amide] displayed an IC50 of 300 nM. This IC50 lies about 5-fold higher than the previous one.

As for `CC[C@H](C)[C@H](NC(=O)CCCCCNC(=O)CCCCCNC(=O)OCc1ccccc1)C(=O)N[C@H](C(=O)N[C@@H](Cc1c[nH]c2ccccc12)C(OC)OC)[C@@H](C)CC` [Example 68], the IC50 was determined as 5000 nM.

Regarding `CC[C@H](C)[C@H](NC(=O)CCCCCNC(=O)CCCCCNC(=O)c1cc(=O)[nH]c(=O)[nH]1)C(=O)N[C@H](C(=O)NC(C=O)Cc1c[nH]c2ccccc12)[C@@H](C)CC` (some centres unmarked) [Example 69], the IC50 amounted to 60 nM.

The compound `CC[C@H](C)[C@H](NC(=O)CCCCCNC(=O)CCCCCNC(=O)CC1NC(=O)NC1=O)C(=O)N[C@H](C(=O)NC(C=O)Cc1c[nH]c2ccccc12)[C@@H](C)CC` (some centres unmarked) [Example 70] gave an IC50 of 80 nM.

With `CC[C@H](C)[C@H](NC(=O)CCCCCNC(=O)OCc1ccccc1)C(=O)N[C@H](C(=O)N[C@H](C=O)Cc1c[nH]c2ccccc12)[C@@H](C)CC` [Example 71] ({Cbz-Ahx}-Ile-Ile-Trp-aldehyde), the concentration for half-maximal inhibition (IC50) came to 40 nM.

Compound `CCCCC(=O)N[C@H](C(=O)N[C@H](C(=O)NC(C=O)Cc1c[nH]c2ccccc12)[C@@H](C)CC)[C@@H](C)CC` (stereo partly drawn) [Example 72] (Pentanoyl-Ile-Ile-[ξW]-aldehyde) showed an IC50 of 150 nM.

`CC[C@H](C)[C@H](NC(=O)CCC(=O)OC)C(=O)N[C@H](C(=O)NC(Cc1c[nH]c2ccccc12)C(OC)OC)[C@@H](C)CC` (some centres unmarked) [Example 73]: the IC50 stood at 8000 nM.

The compound `CC[C@H](C)[C@H](NC(=O)CCC(=O)OC)C(=O)N[C@H](C(=O)NC(C=O)Cc1c[nH]c2ccccc12)[C@@H](C)CC` (stereo partly drawn) [Example 74] (MeOSuc-Ile-Ile-[ξW]-aldehyde) displayed an IC50 of 80 nM.

The compound `NC(=O)NN=CC(Cc1c[nH]c2ccccc12)NC(=O)[C@H](Cc1c[nH]c2ccccc12)NC(=O)[C@H](Cc1c[nH]c2ccccc12)NC(=O)OCc1ccccc1` (some centres unmarked) [Example 75] displayed a half-inhibitory concentration (IC50) of 40 nM.

The compound `CC[C@@H](C)[C@@H](NC(=O)OCc1ccccc1)C(=O)N[C@H](C(=O)N[C@H](C=O)Cc1c[nH]c2ccccc12)[C@@H](C)CC` [Example 77, N-Benzyloxycarbonyl-R-isoleucyl-S-isoleucine-1-S--formyl-2-(1H--indol-3-yl)-ethylamide] (Cbz-[dI]-Ile-Trp-aldehyde) came in with a half-inhibitory concentration (IC50) of 1000 nM.

Regarding `COC(OC)C(Cc1c[nH]c2ccccc12)NC(=O)[C@H](Cc1c[nH]c2ccccc12)NC(=O)[C@H](Cc1c[nH]c2ccccc12)NC(=O)CCCCCNC(=O)CCCCC1SCC2NC(=O)NC21` (stereo partly drawn) [Example 78, N-[[[5-(hexahydro-2-oxo-1H-thieno[3,4-d]imidazol-4-yl)valeramido]hexanoyl]-L-trytophanyl-L-tryptophan-L-N-[1-dimethoxymethyl]2-(1H-indol-3-yl)ethyl]amide], half-maximal inhibition (IC50) required 10000 nM. Against the preceding compound, the IC50 is about 10-fold higher.

In turn, `CC[C@H](C)[C@H](NC(=O)OCc1ccccc1)C(=O)N[C@H](C(=O)NC(Cc1c[nH]c2ccccc12)NC(=O)COC(C)=O)[C@@H](C)CC` (some centres unmarked) [Example 80] gave an IC50 of 10000 nM. In other words, the double-digit micromolar range.

In turn, `CC[C@H](C)[C@H](NC(=O)OCc1cccnc1)C(=O)N[C@H](C(=O)N[C@H](C=O)Cc1c[nH]c2ccccc12)[C@@H](C)CC` [Example 81] returned an IC50 of 200 nM.

On to `CCOC(=O)C1OC1C(=O)NCC(Cc1c[nH]c2ccccc12)NC(=O)[C@@H](NC(=O)[C@@H](NC(=O)OCc1ccccc1)[C@@H](C)CC)[C@@H](C)CC` (some centres unmarked) [Example 82], for which the 50% inhibitory concentration (IC50) was determined as 10000 nM.

`CC[C@H](C)[C@H](NC(=O)OCc1ccccc1)C(=O)N[C@H](C(=O)NC(CNC(=O)CCN1C(=O)C=CC1=O)Cc1c[nH]c2ccccc12)[C@@H](C)CC` (stereo partly drawn) [Example 83, N-(benzyloxy)carbonyl-L-isoleucyl-L-isoleucine-L-N-[1-[(3-maleimidopropionamido]methyl]-2-(1H-indol-3-yl)ethyl]amide] yielded an IC50 of 1000 nM.

In turn, `CC[C@H](C)[C@H](NC(=O)OCc1ccccc1)C(=O)N[C@H](C(=O)N[C@H](CNC(=O)CN1C(=O)C=CC1=O)Cc1c[nH]c2ccccc12)[C@@H](C)CC` [Example 84] returned an IC50 of 1000 nM.

In turn, `CC[C@H](C)[C@H](NC(=O)OCc1ccccc1)C(=O)N[C@H](C(=O)NC(CNC(=O)CCl)Cc1c[nH]c2ccccc12)[C@@H](C)CC` (stereo partly drawn) [Example 85, N-(benzyloxy)carbonyl-L-isoleucyl-L-isoleucine-L-N-[1-[(2-chloroacetamido]methy]-2-(1H-indol-3-yl)ethyl]amide] registered a half-maximal inhibitory concentration (IC50) of 10000 nM.

`CC[C@H](C)[C@H](NC(=O)OCc1ccccc1)C(=O)N[C@H](C(=O)NC(CNC(=O)CO)Cc1c[nH]c2ccccc12)[C@@H](C)CC` (stereo partly drawn) [Example 86, N-(benzyloxy)carbonyl-L-isoleucyl-L-isoleucine-L-N-[1-[(2-hydroxyacetamido]methyl]-2-(1H-indol-3-yl)ethyl]amide] came in with an IC50 of 10000 nM.

With `NC(=O)NN=CC(Cc1c[nH]c2ccccc12)NC(=O)[C@H](Cc1c[nH]c2ccccc12)NC(=O)[C@H](Cc1c[nH]c2ccccc12)NC(=O)CCCCCNC(=O)CCCCC1SCC2NC(=O)NC21` (stereo partly drawn) [Example 87, N-[[[5-(hexahydro-2-oxo-1H-thieno[3,4-d]imidazol-4-yl)valeramido]hexanoyl]-L-tryptophanyl-L-tryptophan-L-N-[1-semicarbazonomethyl]2-(1H-indol-3-yl)ethyl]amide], the IC50 was found to be 60 nM.

As to `CC[C@H](C)[C@H](NC(=O)OCc1ccccc1)C(=O)N[C@H](C(=O)NC(Cc1ccccc1)C(=O)C(=O)O)[C@@H](C)CC` (some centres unmarked) [Example 88], the IC50 is 600 nM.

Regarding `CC[C@H](C)[C@H](NC(=O)CCCCc1ccccc1)C(=O)N[C@H](C(=O)NC(C=O)Cc1c[nH]c2ccccc12)[C@@H](C)CC` (some centres unmarked) [Example 89], half-maximal inhibition (IC50) was put at 50 nM.

`CC[C@H](C)[C@H](NC(=O)CCOc1ccccc1)C(=O)N[C@H](C(=O)N[C@H](C=O)Cc1c[nH]c2ccccc12)[C@@H](C)CC` [Example 90]: the IC50 is 60 nM.

Take `O=C[C@H](Cc1c[nH]c2ccccc12)NC(=O)[C@H](Cc1c[nH]c2ccccc12)NC(=O)[C@H](Cc1c[nH]c2ccccc12)NC(=O)CCCCC1SCC2NC(=O)NC21` (stereo partly drawn) [Example 91, N-[[5-(hexahydro-2-oxo-1H-thieno[3,4-d]imidazol-4-yl)pentanoyl]-L-tryptophanyl-L-tryptophan-L-N-[1-formyl]2-(1H-indol-3-yl)ethyl]amide]: half-maximal inhibition (IC50) was put at 5 nM.

Broadly, the IC50 is the midpoint of a concentration-inhibition curve. High values mean lower potency, low ones higher potency.
